{"source": "patent US11974976B2", "about": "“Animal feeds and feed premixes containing betaine hydrochloride and a phytase” (Rural Chemical Industries (AUST) PTY LTD, priority 2013, dated 2024)", "test_system": "male Ross 308 chicks", "assay": "Growth performance of broilers (weight gain, feed intake, feed conversion)", "type": "in vivo, broiler chicks", "conditions": "for Feed efficiency: feed conversion ratio; for Feed efficiency / Feed intake / Weight gain / Gain-corrected FCR: phytase 500 FTU/kg, betaine 2.75 g/kg", "method": "The composition and nutrient specifications of the three basal starter (1-16 days post-hatch) and finisher (17-37 days post-hatch) diets are shown in Table 1. An NSP-degrading enzyme (Econase XT) was included across all the wheat-based diets to reflect standard practice and the finisher diets contained 20 g/kg Celite as an acid insoluble ash dietary marker. The starter diets were fed as mash, while the finisher diets were steam-pelleted at a conditioning temperature of 85° C. The NC1 diets were the ‘phytase-modified’ diets with formulated with reductions of 1.4 g/kg Ca and 1.5 g/kg P in the starter diets, which mainly stemmed from the elimination of dicalcium phosphate. The corresponding reductions in the finisher diets were 1.2 g/kg Ca and 1.4/kg P. The NC2 diets were the ‘betaine-modified’ diets in which energy density, methionine and choline levels were reduced mainly by lower inclusion levels of canola oil and synthetic methionine and the elimination of choline chloride relative to the PC diets. The energy densities were reduced from 12.55 to 12.24 MJ/kg in the starter diets and from 12.97 to 12.66 MJ/kg in the finisher diets. Methionine levels were reduced from 4.44 to 3.19 g/kg in the starter diets and from 4.18 to 2.93 g/kg in the finisher diets. Exogenous phytase (Quantum® Blue; AB Vista) was included in the relevant diets at 100 g per tonne or 500 FTU/kg phytase activity and, similarly, betaine HCl (Hi Beta″, 970 g/kg betaine hydrochloride; Rural Chemical Industries) was included in the diets at 2.75 g/kg.\nThe parameters evaluated included growth performance (weight gains, feed intakes, feed conversion ratios; FCR) from 1 to 16, 17 to 37 and 1 to 37 days post-hatch, 1 to 37 days weight gain-corrected FCR, mortality/cull rates, percentage toe ash, nitrogen (N) excretion and nutrient utilisation. Nutrient utilisation included apparent metabolisable energy (AME), expressed as both MJ/kg and MJ/day, N retention and N-corrected AME (AMEn). Also, breast weights in absolute and relative (% yield) terms, abdominal fat pad weights and pH of gizzard contents were determined. However, for reasons of practical expediency, absolute breast weights were determined on a ‘bone-in’ basis from birds that had not been de-feathered and this approach inflates both the absolute weight and yield; nevertheless, the data remains indicative. The experimental data was obtained and calculated via standard procedures followed by the Poultry Research Foundation. While the various procedures are not detailed in this report the majority of them have been described in detail (Selle et al., 2003b) previously.\nThe experimental data was statistically analysed as a 3×2×2 factorial array of dietary treatments. That is diet type (PC, NC1, NC2), without and with the addition of phytase, without and with the addition of betaine HCl. Each of the 12 dietary treatments was offered to 8 replicate cages of 6 birds or a total of 96 cages and 576 birds (male Ross 308 chicks). The IBM® SPSS® Statistics 20 program was used to analyse experimental data and the study complied with specific guidelines of the Animal Ethics Committee of Sydney University.", "key": {"[1]": {"conditions": "NC1 diets, 1 to 16 days post-hatch"}, "[2]": {"conditions": "NC1 diets, 1 to 37 days post-hatch"}, "[3]": {"conditions": "NC1 diets, 17 to 37 days post-hatch"}, "[4]": {"conditions": "NC2 diets, 1 to 16 days post-hatch"}, "[5]": {"conditions": "NC2 diets, 1 to 37 days post-hatch"}, "[6]": {"conditions": "NC2 diets, 17 to 37 days post-hatch"}, "[7]": {"conditions": "PC diets, 1 to 16 days post-hatch"}, "[8]": {"conditions": "PC diets, 1 to 37 days post-hatch"}, "[9]": {"conditions": "PC diets, 17 to 37 days post-hatch"}, "[10]": {"conditions": "main effect across diets, 1 to 16 days post-hatch"}, "[11]": {"conditions": "main effect across diets, 1 to 37 days post-hatch"}, "[12]": {"conditions": "main effect across diets, 17 to 37 days post-hatch"}, "[13]": {"conditions": "main effect, 17 to 37 days (finisher phase)"}}, "note": "Counter-ions that a name gives are not always drawn. Marks after values point to notes of the source that are not given here.", "data": [{"molecule": "C[N+](C)(C)CC(=O)O", "note": "[Betaine, betaine hydrochloride]", "values": [{"measurement": "Weight gain, phytase x betaine interaction mean", "setting": "1 to 37 days, across diet types", "result": 2202, "unit": "g/bird"}, {"measurement": "Weight gain, phytase x betaine interaction mean", "setting": "17 to 37 days, across diet types", "result": 1797, "unit": "g/bird"}, {"measurement": "Depression of weight gain versus non-supplemented diets", "setting": "17 to 37 days, betaine HCl alone, across diet types", "result": 7.70, "unit": "%"}, {"measurement": "Feed efficiency", "setting": "[1]", "result": 1.414}, {"measurement": "Feed intake", "setting": "[1]", "result": 556, "unit": "g/bird"}, {"measurement": "Weight gain", "setting": "[1]", "result": 395, "unit": "g/bird"}, {"measurement": "Weight gain, two-way interaction mean (diet type x additive)", "setting": "NC1 diets, 1 to 37 days", "result": 2437, "unit": "g/bird"}, {"measurement": "Feed efficiency", "setting": "[2]", "result": 1.732}, {"measurement": "Feed intake", "setting": "[2]", "result": 3478, "unit": "g/bird"}, {"measurement": "Weight gain", "setting": "[2]", "result": 2012, "unit": "g/bird"}, {"measurement": "Gain-corrected FCR", "setting": "NC1 diets, 1 to 37 days", "result": 1.858, "unit": "g/g"}, {"measurement": "Increase in weight gain on addition to diet", "setting": "NC1 diets, 1 to 37 days, two-way interaction", "result": 0.61, "unit": "%"}, {"measurement": "Weight gain, two-way interaction mean (diet type x additive)", "setting": "NC1 diets, 17 to 37 days", "result": 1737, "unit": "g/bird"}, {"measurement": "Feed efficiency", "setting": "[3]", "result": 1.811}, {"measurement": "Feed intake", "setting": "[3]", "result": 2923, "unit": "g/bird"}, {"measurement": "Weight gain", "setting": "[3]", "result": 1618, "unit": "g/bird"}, {"measurement": "Feed efficiency", "setting": "[4]", "result": 1.394}, {"measurement": "Feed intake", "setting": "[4]", "result": 523, "unit": "g/bird"}, {"measurement": "Weight gain", "setting": "[4]", "result": 377, "unit": "g/bird"}, {"measurement": "Feed efficiency", "setting": "[5]", "result": 1.641}, {"measurement": "Feed intake", "setting": "[5]", "result": 3728, "unit": "g/bird"}, {"measurement": "Weight gain", "setting": "[5]", "result": 2272, "unit": "g/bird"}, {"measurement": "Gain-corrected FCR", "setting": "NC2 diets, 1 to 37 days", "result": 1.663, "unit": "g/g"}, {"measurement": "Depression of weight gain on addition to diet", "setting": "NC2 diets, 1 to 37 days, two-way interaction", "result": 5.29, "unit": "%"}, {"measurement": "Feed efficiency", "setting": "[6]", "result": 1.691}, {"measurement": "Feed intake", "setting": "[6]", "result": 3205, "unit": "g/bird"}, {"measurement": "Weight gain", "setting": "[6]", "result": 1896, "unit": "g/bird"}, {"measurement": "Depression of weight gain on addition to diet", "setting": "NC2 diets, 17 to 37 days, two-way interaction", "result": 6.27, "unit": "%"}, {"measurement": "Feed efficiency", "setting": "[7]", "result": 1.334}, {"measurement": "Feed intake", "setting": "[7]", "result": 591, "unit": "g/bird"}, {"measurement": "Weight gain", "setting": "[7]", "result": 444, "unit": "g/bird"}, {"measurement": "Feed efficiency", "setting": "[8]", "result": 1.601}, {"measurement": "Feed intake", "setting": "[8]", "result": 3714, "unit": "g/bird"}, {"measurement": "Weight gain", "setting": "[8]", "result": 2321, "unit": "g/bird"}, {"measurement": "Gain-corrected FCR", "setting": "PC diets, 1 to 37 days", "result": 1.604, "unit": "g/g"}, {"measurement": "Depression of weight gain on addition to diet", "setting": "PC diets, 1 to 37 days, two-way interaction", "result": 4.90, "unit": "%"}, {"measurement": "Feed efficiency", "setting": "[9]", "result": 1.665}, {"measurement": "Feed intake", "setting": "[9]", "result": 3123, "unit": "g/bird"}, {"measurement": "Weight gain", "setting": "[9]", "result": 1878, "unit": "g/bird"}, {"measurement": "Depression of weight gain on addition to diet", "setting": "PC diets, 17 to 37 days, two-way interaction", "result": 6.35, "unit": "%"}, {"measurement": "Feed efficiency", "setting": "main effect across diets, 1 to 16 days post-hatch, hydrochloride", "result": "1.380^b"}, {"measurement": "Feed efficiency", "setting": "main effect across diets, 1 to 16 days post-hatch, listed as Betaine HCl, hydrochloride", "result": 1.380}, {"measurement": "Feed intake", "setting": "[10]", "result": 567, "unit": "g/bird"}, {"measurement": "Weight gain", "setting": "[10]", "result": 413, "unit": "g/bird"}, {"measurement": "Feed efficiency", "setting": "main effect across diets, 1 to 37 days post-hatch, hydrochloride", "result": 1.647}, {"measurement": "Feed efficiency", "setting": "main effect across diets, 1 to 37 days post-hatch, listed as betaine HCl, hydrochloride", "result": "no significant impact"}, {"measurement": "Feed intake", "setting": "[11]", "result": 3756, "unit": "g/bird"}, {"measurement": "Weight gain", "setting": "[11]", "result": 2288, "unit": "g/bird"}, {"measurement": "Gain-corrected FCR", "setting": "main effect across diets, 1 to 37 days, hydrochloride", "result": "1.663^a g/g"}, {"measurement": "Gain-corrected FCR", "setting": "main effect across diets, 1 to 37 days, listed as betaine HCl, hydrochloride", "result": 1.663, "unit": "g/g"}, {"measurement": "Feed efficiency", "setting": "main effect across diets, 17 to 37 days post-hatch, hydrochloride", "result": "1.707^b"}, {"measurement": "Feed efficiency", "setting": "main effect across diets, 17 to 37 days post-hatch, listed as betaine HCl, hydrochloride", "result": 1.707}, {"measurement": "Feed intake", "setting": "[12]", "result": 3189, "unit": "g/bird"}, {"measurement": "Weight gain", "setting": "[12]", "result": "1875^a g/bird"}, {"measurement": "Depression of gain-corrected FCR", "setting": "main effect, 1 to 37 days", "result": 3.42, "unit": "%"}, {"measurement": "Depression of feed efficiency", "setting": "[13]", "result": 2.46, "unit": "%"}, {"measurement": "Depression of weight gain", "setting": "[13]", "result": 4.48, "unit": "%"}, {"measurement": "Depression of growth rates", "setting": "main effect, entire feeding period", "result": 3.38, "unit": "%"}, {"measurement": "Improvement in feed efficiency (FCR)", "setting": "main effect, starter phase, 1 to 16 days post-hatch", "result": 3.77, "unit": "%"}]}]}
